According to ChEMBL document CHEMBL1909046, “DrugMatrix in vitro pharmacology data”:

How the values were obtained:
[1] = target: T1, Alpha-1D adrenergic receptor (Homo sapiens, UniProt P25100); format: cell membranes, HEK293, Membrane; conditions: hek293; note: in other assays of this panel Not Active means under 50% inhibition at 10 µM
T1 sequence (P25100 whole entry): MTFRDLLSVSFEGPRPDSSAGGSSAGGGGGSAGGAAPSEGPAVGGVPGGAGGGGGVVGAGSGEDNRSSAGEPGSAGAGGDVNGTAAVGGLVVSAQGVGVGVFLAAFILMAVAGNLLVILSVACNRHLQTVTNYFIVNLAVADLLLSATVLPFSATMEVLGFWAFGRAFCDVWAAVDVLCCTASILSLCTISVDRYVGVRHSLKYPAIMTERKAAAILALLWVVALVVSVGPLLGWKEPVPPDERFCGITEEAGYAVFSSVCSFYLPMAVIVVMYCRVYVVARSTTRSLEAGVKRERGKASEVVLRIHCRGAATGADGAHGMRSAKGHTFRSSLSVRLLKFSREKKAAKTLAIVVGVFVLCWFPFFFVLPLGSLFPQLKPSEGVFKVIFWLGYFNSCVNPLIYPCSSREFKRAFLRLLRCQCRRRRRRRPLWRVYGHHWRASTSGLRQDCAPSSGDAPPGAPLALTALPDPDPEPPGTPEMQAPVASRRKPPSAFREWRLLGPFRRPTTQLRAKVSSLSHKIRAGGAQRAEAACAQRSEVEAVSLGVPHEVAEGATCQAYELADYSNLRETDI

[2] = target: 5-hydroxytryptamine receptor 4 (Cavia porcellus, UniProt O70528); format: cell membranes, Dunkin-Hartley, Striatum, Membrane; note: in other assays of this panel Not Active means under 50% inhibition at 10 µM
[3] = target: 5-hydroxytryptamine receptor 6 (Homo sapiens, UniProt P50406); format: cell membranes, HeLa, Membrane; conditions: hela; note: in other assays of this panel Not Active means under 50% inhibition at 10 µM
[4] = target: Substance-P receptor (Homo sapiens, UniProt P25103); format: cell membranes, CHO, Membrane; conditions: cho; note: in other assays of this panel Not Active means under 50% inhibition at 10 µM
[5] = target: T2, Endothelin-1 receptor (Homo sapiens, UniProt P25101); format: cell membranes, Membrane; conditions: cho-k1; note: in other assays of this panel Not Active means under 50% inhibition at 10 µM
T2 sequence (P25101 whole entry): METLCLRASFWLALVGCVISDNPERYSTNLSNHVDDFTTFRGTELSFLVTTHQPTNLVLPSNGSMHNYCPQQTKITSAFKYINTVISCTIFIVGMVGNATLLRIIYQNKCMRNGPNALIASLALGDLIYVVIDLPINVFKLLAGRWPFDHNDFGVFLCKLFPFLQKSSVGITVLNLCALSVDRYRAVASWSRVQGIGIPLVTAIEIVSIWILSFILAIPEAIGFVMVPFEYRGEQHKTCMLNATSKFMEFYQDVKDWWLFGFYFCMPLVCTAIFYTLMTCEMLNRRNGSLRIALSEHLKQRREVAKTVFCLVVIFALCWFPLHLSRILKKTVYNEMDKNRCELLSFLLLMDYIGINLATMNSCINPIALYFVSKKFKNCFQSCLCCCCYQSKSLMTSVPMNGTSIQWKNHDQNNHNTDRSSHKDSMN

[6] = target: T3, Cysteinyl leukotriene receptor 1 (Homo sapiens, UniProt Q9Y271); format: cell membranes, CHO-K1, Membrane; conditions: cho-k1; note: in other assays of this panel Not Active means under 50% inhibition at 10 µM
T3 sequence (Q9Y271 whole entry): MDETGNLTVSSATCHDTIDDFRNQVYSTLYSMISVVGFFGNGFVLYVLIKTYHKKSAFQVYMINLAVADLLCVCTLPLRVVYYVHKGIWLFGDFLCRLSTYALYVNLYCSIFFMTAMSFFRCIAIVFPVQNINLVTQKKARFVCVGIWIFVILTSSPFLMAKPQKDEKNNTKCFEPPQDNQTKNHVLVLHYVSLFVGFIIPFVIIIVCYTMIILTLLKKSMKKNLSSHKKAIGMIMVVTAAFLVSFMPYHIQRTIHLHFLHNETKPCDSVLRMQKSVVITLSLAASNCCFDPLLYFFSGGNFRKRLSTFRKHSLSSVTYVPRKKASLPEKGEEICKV

[7] = target: Melanocortin receptor 3 (Homo sapiens, UniProt P41968); format: cell membranes, Membrane; conditions: hek293; note: in other assays of this panel Not Active means under 50% inhibition at 10 µM
[8] = target: Mitogen-activated protein kinase 3 (Homo sapiens, UniProt P27361); assay: DRUGMATRIX: Protein Serine/Threonine Kinase, ERK1 enzyme inhibition (substrate: Myelin Basic Protein); parameters: species or system Escherichia coli; conditions: Not Active = under 50% inhibition at 10 µM
[9] = target: Mitogen-activated protein kinase 1 (Homo sapiens, UniProt P28482); assay: DRUGMATRIX: Protein Serine/Threonine Kinase, ERK2 enzyme inhibition (substrate: Myelin Basic Protein); parameters: species or system Escherichia coli; conditions: Not Active = under 50% inhibition at 10 µM
[10] = target: 5-hydroxytryptamine receptor 1B (Rattus norvegicus, UniProt P28564); format: cell membranes, Wistar, Cerebral cortex, Membrane; note: in other assays of this panel Not Active means under 50% inhibition at 10 µM
[11] = target: T4, Adenosine receptor A1 (Homo sapiens, UniProt P30542); format: cell membranes, CHO, Membrane; conditions: cho
T4 sequence (P30542 whole entry): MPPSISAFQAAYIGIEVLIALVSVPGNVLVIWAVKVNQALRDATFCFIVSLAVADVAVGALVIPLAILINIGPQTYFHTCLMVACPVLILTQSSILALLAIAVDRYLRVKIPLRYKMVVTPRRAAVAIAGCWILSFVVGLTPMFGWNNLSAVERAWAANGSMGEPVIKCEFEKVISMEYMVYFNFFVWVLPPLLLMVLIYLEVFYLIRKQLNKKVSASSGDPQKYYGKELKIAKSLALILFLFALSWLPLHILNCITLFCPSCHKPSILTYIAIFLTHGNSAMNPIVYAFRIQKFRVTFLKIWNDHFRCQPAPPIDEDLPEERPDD

[12] = target: T5, Cytochrome P450 1A2 (Homo sapiens, UniProt P05177); conditions: bti-tn-5b1-4; note: in other assays of this panel Not Active means under 50% inhibition at 10 µM
T5 sequence (P05177 whole entry): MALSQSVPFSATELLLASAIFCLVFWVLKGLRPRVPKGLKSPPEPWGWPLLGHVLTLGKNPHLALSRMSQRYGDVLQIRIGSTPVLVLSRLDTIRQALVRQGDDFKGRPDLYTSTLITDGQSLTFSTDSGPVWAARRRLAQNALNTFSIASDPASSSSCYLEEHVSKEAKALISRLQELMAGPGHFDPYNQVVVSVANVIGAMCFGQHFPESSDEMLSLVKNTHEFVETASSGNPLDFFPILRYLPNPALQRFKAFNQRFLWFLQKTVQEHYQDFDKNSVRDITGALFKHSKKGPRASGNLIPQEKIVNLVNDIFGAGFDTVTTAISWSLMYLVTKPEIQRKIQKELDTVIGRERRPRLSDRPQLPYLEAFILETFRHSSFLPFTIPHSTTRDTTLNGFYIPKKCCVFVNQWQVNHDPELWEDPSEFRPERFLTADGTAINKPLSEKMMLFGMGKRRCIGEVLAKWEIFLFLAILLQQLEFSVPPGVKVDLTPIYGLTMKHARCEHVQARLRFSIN

[13] = target: Cytochrome P450 2E1 (Homo sapiens, UniProt P05181); conditions: bti-tn-5b1-4; note: in other assays of this panel Not Active means under 50% inhibition at 10 µM
Sequence of Cytochrome P450 2E1 (P05181 whole entry): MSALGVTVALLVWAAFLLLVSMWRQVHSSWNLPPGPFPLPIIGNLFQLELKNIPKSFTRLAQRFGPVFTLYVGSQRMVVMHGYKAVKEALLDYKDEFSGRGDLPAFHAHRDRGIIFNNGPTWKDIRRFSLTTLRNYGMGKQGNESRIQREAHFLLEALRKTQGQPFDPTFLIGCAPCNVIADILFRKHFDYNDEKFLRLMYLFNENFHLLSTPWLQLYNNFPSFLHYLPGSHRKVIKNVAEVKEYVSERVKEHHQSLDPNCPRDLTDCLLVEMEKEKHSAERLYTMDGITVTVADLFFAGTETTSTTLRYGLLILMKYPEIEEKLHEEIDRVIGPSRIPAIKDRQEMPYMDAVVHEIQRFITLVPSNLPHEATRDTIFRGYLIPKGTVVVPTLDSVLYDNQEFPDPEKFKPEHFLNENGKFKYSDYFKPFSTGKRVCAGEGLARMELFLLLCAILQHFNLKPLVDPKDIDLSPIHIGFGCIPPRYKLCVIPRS

Sequence of Substance-P receptor (P25103 whole entry): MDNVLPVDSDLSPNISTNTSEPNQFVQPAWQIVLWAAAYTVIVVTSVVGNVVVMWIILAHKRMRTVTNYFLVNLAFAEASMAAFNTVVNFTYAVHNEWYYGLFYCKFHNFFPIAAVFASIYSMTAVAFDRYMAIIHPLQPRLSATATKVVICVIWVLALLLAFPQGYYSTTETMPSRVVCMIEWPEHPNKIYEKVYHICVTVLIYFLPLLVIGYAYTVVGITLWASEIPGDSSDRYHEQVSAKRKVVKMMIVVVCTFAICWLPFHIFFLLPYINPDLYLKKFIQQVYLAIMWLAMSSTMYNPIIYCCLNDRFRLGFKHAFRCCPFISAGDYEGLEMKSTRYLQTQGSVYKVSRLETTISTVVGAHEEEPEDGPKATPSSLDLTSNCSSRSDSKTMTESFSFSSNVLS
Sequence of Melanocortin receptor 3 (P41968 whole entry): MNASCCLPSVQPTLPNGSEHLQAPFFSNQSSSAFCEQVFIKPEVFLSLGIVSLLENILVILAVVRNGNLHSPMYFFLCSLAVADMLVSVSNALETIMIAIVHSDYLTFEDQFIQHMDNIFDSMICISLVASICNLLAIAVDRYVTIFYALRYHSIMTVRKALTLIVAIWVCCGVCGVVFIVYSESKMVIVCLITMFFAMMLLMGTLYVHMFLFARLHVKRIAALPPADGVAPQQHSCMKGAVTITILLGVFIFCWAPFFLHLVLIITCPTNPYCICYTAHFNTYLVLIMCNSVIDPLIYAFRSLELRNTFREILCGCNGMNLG
Sequence of Mitogen-activated protein kinase 1 (P28482 whole entry): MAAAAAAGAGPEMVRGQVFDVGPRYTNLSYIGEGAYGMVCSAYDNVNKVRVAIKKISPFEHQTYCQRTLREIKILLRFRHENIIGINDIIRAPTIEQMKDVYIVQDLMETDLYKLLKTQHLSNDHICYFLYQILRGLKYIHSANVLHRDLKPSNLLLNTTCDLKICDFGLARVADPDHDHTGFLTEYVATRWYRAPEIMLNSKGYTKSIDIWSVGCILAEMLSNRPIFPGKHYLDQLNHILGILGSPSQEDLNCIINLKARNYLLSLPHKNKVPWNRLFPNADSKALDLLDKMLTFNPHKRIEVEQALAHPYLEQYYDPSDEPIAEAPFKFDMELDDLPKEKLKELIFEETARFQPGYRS
Sequence of 5-hydroxytryptamine receptor 4 (O70528 whole entry): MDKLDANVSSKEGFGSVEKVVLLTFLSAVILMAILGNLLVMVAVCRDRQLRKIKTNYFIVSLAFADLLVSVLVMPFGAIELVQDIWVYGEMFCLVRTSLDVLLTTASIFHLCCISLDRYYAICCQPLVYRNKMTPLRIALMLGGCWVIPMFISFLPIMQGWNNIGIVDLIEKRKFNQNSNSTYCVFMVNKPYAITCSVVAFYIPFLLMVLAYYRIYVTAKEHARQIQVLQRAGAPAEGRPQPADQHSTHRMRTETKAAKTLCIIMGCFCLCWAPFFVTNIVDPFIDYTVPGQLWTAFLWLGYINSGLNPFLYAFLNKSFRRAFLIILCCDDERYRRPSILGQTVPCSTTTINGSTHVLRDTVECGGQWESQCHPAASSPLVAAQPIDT
Sequence of 5-hydroxytryptamine receptor 1B (P28564 whole entry): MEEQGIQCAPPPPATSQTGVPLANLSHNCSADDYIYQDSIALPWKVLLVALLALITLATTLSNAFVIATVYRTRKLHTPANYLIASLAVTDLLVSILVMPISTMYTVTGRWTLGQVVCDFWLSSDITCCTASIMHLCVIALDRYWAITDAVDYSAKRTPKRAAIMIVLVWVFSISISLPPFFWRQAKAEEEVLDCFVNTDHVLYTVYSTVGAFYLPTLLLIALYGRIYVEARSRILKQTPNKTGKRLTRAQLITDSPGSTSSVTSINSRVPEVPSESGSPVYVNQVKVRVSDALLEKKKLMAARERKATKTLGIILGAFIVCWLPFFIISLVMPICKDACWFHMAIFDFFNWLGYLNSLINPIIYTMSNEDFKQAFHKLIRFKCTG
Sequence of 5-hydroxytryptamine receptor 6 (P50406 whole entry): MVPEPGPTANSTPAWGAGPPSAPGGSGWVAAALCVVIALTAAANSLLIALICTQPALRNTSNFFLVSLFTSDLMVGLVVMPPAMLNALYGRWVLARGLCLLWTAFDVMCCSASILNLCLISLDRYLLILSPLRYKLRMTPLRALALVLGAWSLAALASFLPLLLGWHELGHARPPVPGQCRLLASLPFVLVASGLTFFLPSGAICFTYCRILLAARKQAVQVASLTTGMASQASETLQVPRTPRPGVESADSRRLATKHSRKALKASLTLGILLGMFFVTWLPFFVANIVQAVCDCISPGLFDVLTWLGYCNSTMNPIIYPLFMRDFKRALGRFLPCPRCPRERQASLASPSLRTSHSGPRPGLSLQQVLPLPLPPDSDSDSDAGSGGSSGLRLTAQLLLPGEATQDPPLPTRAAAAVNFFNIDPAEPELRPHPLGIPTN
Sequence of Mitogen-activated protein kinase 3 (P27361 whole entry): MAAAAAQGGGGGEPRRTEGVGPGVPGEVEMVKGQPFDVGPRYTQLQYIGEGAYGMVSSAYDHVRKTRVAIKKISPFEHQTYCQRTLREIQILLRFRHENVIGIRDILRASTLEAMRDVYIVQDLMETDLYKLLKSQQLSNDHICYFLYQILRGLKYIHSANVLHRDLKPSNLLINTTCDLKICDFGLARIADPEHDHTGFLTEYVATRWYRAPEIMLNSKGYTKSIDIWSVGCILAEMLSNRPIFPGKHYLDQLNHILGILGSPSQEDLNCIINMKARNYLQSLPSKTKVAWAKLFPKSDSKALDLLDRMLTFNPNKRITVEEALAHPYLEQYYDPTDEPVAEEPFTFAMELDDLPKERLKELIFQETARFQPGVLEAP

Compound	IC50 [1]	IC50 [2]	IC50 [3]	IC50 [4]	IC50 [5]	IC50 [6]	IC50 [7]	IC50 [8]	IC50 [9]	IC50 [10]	IC50 [11]	IC50 [12]	Ki [12]	IC50 [13]	Ki [13]	Ki [1]	Ki [2]	Ki [3]	Ki [4]	Ki [5]	further results
Cn1cnc([N+](=O)[O-])c1Sc1ncnc2nc[nH]c12 [AZATHIOPRINE]	Not Active	Not Active	Not Active	Not Active	Not Active	Not Active	Not Active	Not Active	Not Active	Not Active	Not Active	Not Active	Not Active	Not Active	Not Active						
COC1=CC(=O)C[C@@H](C)[C@]12Oc1c(Cl)c(OC)cc(OC)c1C2=O [GRISEOFULVIN]	Not Active	Not Active	Not Active	Not Active	Not Active	Not Active	Not Active	Not Active	Not Active	Not Active	Not Active	Not Active	Not Active	Not Active	Not Active						
O=C1CN=C(c2ccccc2)c2cc([N+](=O)[O-])ccc2N1 [NITRAZEPAM]	Not Active	Not Active	Not Active	Not Active	Not Active	Not Active	Not Active	Not Active	Not Active	Not Active	Not Active	Not Active	Not Active	Not Active	Not Active						
CISPLATIN	Not Active	Not Active	Not Active	Not Active	Not Active	Not Active	Not Active		Not Active	Not Active	Not Active	Not Active	Not Active	Not Active	Not Active	Not Active	Not Active	Not Active	Not Active	Not Active	Ki [6]: Not Active; Ki [7]: Not Active; IC50 ([8]; read-out: IC50): 4.62 µM; Ki [9]: Not Active; Ki [10]: Not Active; Ki [11]: Not Active
GOLD SODIUM THIOMALATE	Not Active	Not Active	Not Active	Not Active	Not Active	Not Active	Not Active	Not Active	Not Active	Not Active	Not Active	Not Active	Not Active	Not Active	Not Active	Not Active	Not Active	Not Active	Not Active	Not Active	Ki [6]: Not Active; Ki [7]: Not Active; Ki [8]: Not Active; Ki [9]: Not Active; Ki [10]: Not Active; Ki [11]: Not Active
O=C(O)c1cn(C2CC2)c2cc(N3CCNCC3)c(F)cc2c1=O [CIPROFLOXACIN]	Not Active	Not Active	Not Active	Not Active	Not Active	Not Active	Not Active	Not Active	Not Active	Not Active	Not Active			Not Active	Not Active						
